Drawing on ChEMBL document CHEMBL5356965, “Discovery and biological evaluation of novel dual PTP1B and ACP1 inhibitors for the treatment of insulin resistance” (Bioorg Med Chem, 2024), this text covers IC50 for two molecules.

Assay [1] concerns the target T1, Tyrosine-protein phosphatase non-receptor type 2 (Homo sapiens, UniProt P17706).
T1 sequence (P17706 whole entry): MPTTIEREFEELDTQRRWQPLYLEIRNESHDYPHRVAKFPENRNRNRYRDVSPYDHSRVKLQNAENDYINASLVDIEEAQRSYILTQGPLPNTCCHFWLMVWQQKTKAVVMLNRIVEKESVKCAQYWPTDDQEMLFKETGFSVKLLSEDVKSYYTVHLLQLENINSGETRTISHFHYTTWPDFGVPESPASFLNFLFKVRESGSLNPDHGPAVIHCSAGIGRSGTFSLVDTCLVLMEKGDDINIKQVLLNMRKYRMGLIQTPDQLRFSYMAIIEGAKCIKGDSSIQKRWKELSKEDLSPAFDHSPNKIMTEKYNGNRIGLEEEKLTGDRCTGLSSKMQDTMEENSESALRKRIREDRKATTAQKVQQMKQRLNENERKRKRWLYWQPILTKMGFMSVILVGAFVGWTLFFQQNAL
Description: Inhibition of recombinant human TCPTP

In assay [2] the target is T2, Tyrosine-protein phosphatase non-receptor type 1 (Homo sapiens, UniProt P18031).
T2 sequence (P18031 whole entry): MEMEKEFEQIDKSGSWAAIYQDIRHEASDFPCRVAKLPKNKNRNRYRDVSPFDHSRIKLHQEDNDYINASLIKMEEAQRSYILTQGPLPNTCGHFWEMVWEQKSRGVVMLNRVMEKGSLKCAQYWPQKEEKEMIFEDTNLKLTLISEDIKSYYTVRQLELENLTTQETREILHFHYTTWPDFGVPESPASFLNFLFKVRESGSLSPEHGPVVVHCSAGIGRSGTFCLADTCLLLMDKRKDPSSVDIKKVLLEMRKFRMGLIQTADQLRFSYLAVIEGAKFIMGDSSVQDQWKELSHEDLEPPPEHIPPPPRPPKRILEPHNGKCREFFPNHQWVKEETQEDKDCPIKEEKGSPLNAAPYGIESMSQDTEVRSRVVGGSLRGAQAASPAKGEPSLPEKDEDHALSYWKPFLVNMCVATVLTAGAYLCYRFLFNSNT
Briefly: Inhibition of recombinant human PTP1B using pNPP as substrate preincubated with compound for 10 mins followed by substrate addition and measured by absorbance based assay.

For assay [3], the target named is T3, Receptor-type tyrosine-protein phosphatase C (Homo sapiens, UniProt P08575).
T3 sequence (P08575 whole entry): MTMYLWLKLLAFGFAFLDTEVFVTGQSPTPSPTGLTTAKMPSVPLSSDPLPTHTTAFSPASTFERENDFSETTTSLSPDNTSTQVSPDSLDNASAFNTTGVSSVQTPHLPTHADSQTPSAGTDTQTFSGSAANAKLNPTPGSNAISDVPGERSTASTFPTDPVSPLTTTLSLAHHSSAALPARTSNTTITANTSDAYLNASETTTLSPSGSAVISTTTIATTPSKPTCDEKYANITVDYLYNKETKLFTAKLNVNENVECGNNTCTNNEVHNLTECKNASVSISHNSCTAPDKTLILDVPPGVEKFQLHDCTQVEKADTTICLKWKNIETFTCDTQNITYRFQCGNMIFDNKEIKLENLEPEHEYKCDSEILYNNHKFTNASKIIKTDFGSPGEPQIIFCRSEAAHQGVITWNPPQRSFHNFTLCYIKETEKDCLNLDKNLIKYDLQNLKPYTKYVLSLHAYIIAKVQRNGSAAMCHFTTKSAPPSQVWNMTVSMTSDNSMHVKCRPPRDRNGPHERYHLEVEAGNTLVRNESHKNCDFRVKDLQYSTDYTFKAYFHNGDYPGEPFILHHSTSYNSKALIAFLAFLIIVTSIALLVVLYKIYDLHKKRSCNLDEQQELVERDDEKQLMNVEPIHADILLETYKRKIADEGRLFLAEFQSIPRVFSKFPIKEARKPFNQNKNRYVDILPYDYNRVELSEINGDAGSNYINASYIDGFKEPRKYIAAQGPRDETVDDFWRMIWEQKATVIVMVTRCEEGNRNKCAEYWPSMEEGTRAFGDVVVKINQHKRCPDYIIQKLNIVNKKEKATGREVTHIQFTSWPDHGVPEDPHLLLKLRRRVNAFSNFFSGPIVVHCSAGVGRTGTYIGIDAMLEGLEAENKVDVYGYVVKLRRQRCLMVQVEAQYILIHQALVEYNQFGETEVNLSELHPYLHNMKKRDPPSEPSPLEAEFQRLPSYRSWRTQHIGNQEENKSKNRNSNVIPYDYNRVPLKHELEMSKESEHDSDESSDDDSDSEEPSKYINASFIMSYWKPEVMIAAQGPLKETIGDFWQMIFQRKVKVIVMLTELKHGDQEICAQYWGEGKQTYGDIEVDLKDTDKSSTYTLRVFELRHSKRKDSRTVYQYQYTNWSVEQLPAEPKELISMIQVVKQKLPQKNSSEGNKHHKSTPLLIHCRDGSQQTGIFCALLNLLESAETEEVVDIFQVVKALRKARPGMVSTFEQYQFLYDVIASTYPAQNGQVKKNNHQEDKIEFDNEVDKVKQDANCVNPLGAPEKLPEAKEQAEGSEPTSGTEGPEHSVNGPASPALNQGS
Description: Inhibition of recombinant human CD45

Assay [4] deals with T4, Low molecular weight phosphotyrosine protein phosphatase (Homo sapiens, UniProt P24666).
T4 sequence (P24666 whole entry): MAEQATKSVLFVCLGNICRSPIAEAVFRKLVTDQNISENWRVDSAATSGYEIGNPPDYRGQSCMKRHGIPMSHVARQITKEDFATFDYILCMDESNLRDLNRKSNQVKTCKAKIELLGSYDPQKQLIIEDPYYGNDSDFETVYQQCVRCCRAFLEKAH
The experiment in a line: Inhibition of recombinant human ACP1 using pNPP as substrate preincubated with compound for 10 mins followed by substrate addition and measured by absorbance based assay.

Usually IC50 stands for the concentration that gives 50% inhibition. For `COc1cc(/C=C2/NC(=O)N(Cc3ccccc3)C2=O)cc(Cl)c1OCc1cccc(C(=O)O)c1`, the IC50 in assay [1] is 12.7 µM; in assay [2], 8.2 µM; in assay [3], over 40 µM; in assay [4], 5.2 µM.
With `COc1cc(/C=C2/NC(=O)N(Cc3ccc(C)cc3)C2=O)ccc1OCc1cccc(C(=O)O)c1`, the concentration for half-maximal inhibition (IC50) in assay [1] is 8.3 µM; in assay [3], over 40 µM.
